Data taken from publication PMC7891399 (Journal of Clinical Pharmacology, 2020).
Read-outs that look alike come from different tables or passages of the source. Marks after values point to notes of the source that are not given here.

How the values were obtained:
[1] = assay type: in vivo, women; conditions: for AUC(0-t): female, human, plasma; for AUC0–24h Ratio Third Trimester/Postpartum GMR (90%CI) / Ctrough Ratio Third Trimester/Postpartum GMR (90%CI): paired data only
[2] = assay type: in vivo, women
[3] = Combined PANNA and iTAP comparison of pregnancy effect on TFV exposure; assay type: in vivo; conditions: all groups of women (HIV with r/PI, HIV without r/PI, HBV monoinfection)
[4] = healthy subjects, fed state; ref registration package; cited from earlier work
[5] = women with HBV, TDF monotherapy, paired data only

Question: For C[C@H](Cn1cnc2c(N)ncnc21)OCP(=O)(O)O [TFV, tenofovir], which AUC(0-t) ([1]; oral) is on record?
Answer: Its AUC(0-t) is 1840 ng·h/mL.

Question: What about the AUC(0-t) ([1]; oral, AUC0–24h Postpartum GM (95%CI), women with HIV, all patients (n = 59), postpartum) of the same molecule?
Answer: Its AUC(0-t) is 2840 ng·h/mL.

Question: And the AUC(0-t) ([1]; po)?
Answer: The AUC(0-t) was 1860 ng·h/mL.

Question: What about the “Ctrough Postpartum GM (95%CI)” value ([1]; women with HIV on non-r/PI (n = 27), postpartum) of the same molecule?
Answer: The value was 0.056 (0.050–0.064) µg/mL.

Question: What about the “Ctrough Third Trimester GM (95%CI)” value ([1]; women with HIV on non-r/PI (n = 27)) of the same molecule?
Answer: Its value is 0.038 (0.033–0.043) µg/mL.

Question: And the “AUC0–24h Ratio Third Trimester/Postpartum GMR (90%CI)” value ([1]; women with HIV on non-r/PI)?
Answer: The value was 0.74 (0.68–0.82).

Question: And the “Ctrough Ratio Third Trimester/Postpartum GMR (90%CI)” value ([1]; women with HIV on non-r/PI)?
Answer: Its value is 0.68 (0.62–0.75).

Question: And the “Ctrough decrease by pregnancy, on average” value (shortened to “Ctrough decrease”) ([1]; women with HIV on non-r/PI-based regimens)?
Answer: Its value is 32%.

Question: And the “AUC0–24h lower during the third trimester compared to 1 month postpartum” value ([1]; women with HIV on non-r/PI-based regimens, intraindividual)?
Answer: The value was 26%.

Question: What about the “Ctrough Postpartum GM (95%CI)” value ([1]; women with HIV on r/PI (n = 32), postpartum) of the same molecule?
Answer: The value was 0.063 (0.053–0.075) µg/mL.

Question: And the “Ctrough Third Trimester GM (95%CI)” value ([1]; women with HIV on r/PI (n = 32))?
Answer: The value was 0.048 (0.043–0.054) ^b , ^c µg/mL.

Question: And the “AUC0–24h Ratio Third Trimester/Postpartum GMR (90%CI)” value ([1]; women with HIV on r/PI)?
Answer: Its value is 0.76 (0.69–0.83).

Question: What about the “Ctrough Ratio Third Trimester/Postpartum GMR (90%CI)” value ([1]; women with HIV on r/PI) of the same molecule?
Answer: Its value is 0.81 (0.69–0.94).

Question: And the “Ctrough decrease” value ([1]; women with HIV on r/PI-based regimens)?
Answer: The value was 19%.

Question: What about the “Ctrough Postpartum GM (95%CI)” value ([1]; women with HIV, all patients (n = 59), postpartum) of the same molecule?
Answer: The value was 0.059 (0.053–0.066) µg/mL.

Question: And the “Ctrough Third Trimester GM (95%CI)” value ([1]; women with HIV, all patients (n = 59))?
Answer: Its value is 0.043 (0.039–0.047) µg/mL.

Question: What about the “AUC0–24h Ratio Third Trimester/Postpartum GMR (90%CI)” value ([1]; women with HIV, all patients) of the same molecule?
Answer: Its value is 0.75 (0.70–0.80).

Question: What about the “Ctrough Ratio Third Trimester/Postpartum GMR (90%CI)” value ([1]; women with HIV, all patients) of the same molecule?
Answer: Its value is 0.74 (0.67–0.81).

Question: What about the AUC(0-t) ([2]; female, human, plasma, po) of the same molecule?
Answer: Its AUC(0-t) is 2350 ng·h/mL.

Question: What about the “Ctrough decrease” value ([2]; women with HBV) of the same molecule?
Answer: Its value is 31%.

Question: What about the “AUC0–24h lower during the third trimester compared to 1 month postpartum” value ([2]; women with HBV receiving TDF monotherapy, intraindividual) of the same molecule?
Answer: The value was 21%.

Question: And the “Ctrough Postpartum GM (95%CI)” value ([2]; women with HBV, TDF monotherapy (n = 137), 1 month postpartum)?
Answer: The value was 0.058 (0.055–0.061) µg/mL.

Question: What about the “Ctrough Third Trimester GM (95%CI)” value ([2]; women with HBV, TDF monotherapy (n = 137), third trimester (32 weeks)) of the same molecule?
Answer: The value was 0.039 (0.038–0.042) µg/mL.

Question: And the “AUC0–24h Ratio Third Trimester/Postpartum GMR (90%CI)” value [2, 5]?
Answer: Its value is 0.79 (0.78–0.80).

Question: What about the “Ctrough Ratio Third Trimester/Postpartum GMR (90%CI)” value [2, 5] of the same molecule?
Answer: The value was 0.69 (0.68–0.71).

Question: And the “TFV exposure decrease during the third trimester of pregnancy” value [3]?
Answer: Its value is “approximately 25%”.

Question: And the “mean AUC0–24h” value [4]?
Answer: Its value is 2460 ± 830 ng·h/mL.
